Assay results reported in patent US20080293676A1, “Insecticidal Agents Based on Selected Insecticides and Safeners” (priority 2004, published 2008).

Key:
Type in all cases: in vivo
[1] = system: green peach aphid (Myzus persicae); assay: Myzus persicae test, spray treatment to runoff on infested bell pepper plants; settings: for Kill in % after 1^d: Table E2
From the text: (§1) The expected activity for a given combination of two active ingredients can be calculated (cf. Colby, S. R.; “Calculating Synergistic and Antagonistic Responses of Herbicide Combinations”, Weeds 15, pages 20-22, 1967):
(§2) If • x=the kill rate, expressed in % of the untreated control, when employing active ingredient A at an application rate of m ppm, • Y=the kill rate, expressed in % of the untreated control, when employing active ingredient B at an application rate of n ppm, and • E=the kill rate, expressed in % of the untreated control, when employing active ingredients A and B at application rates of m and n ppm, then
(§3) If the actual insecticidal kill rate is higher than the calculated one, the kill of the combination is superadditive, i.e. a synergistic effect is present. In this case, the kill rate that is actually observed has to be higher than the value, calculated using the formula above, for the expected kill rate (E).
(§4) An appropriate solution is prepared by mixing 1 part by weight of formulation with the stated amount of water and adjuvant, and diluting the concentrate with water to the desired concentration.
Bell pepper plants (Capsicum sativum) heavily infested by the green peach aphid (Myzus persicae) are sprayed to runoff with the desired concentration of the application solution.
(§5) After the desired time the kill in % is determined in each case. In this context, 100% means that all of the larvae have been killed; 0% means that no larvae have been killed. The kill figures determined are calculated in accordance with the Colby formula described above.

[2] = system: cotton aphid (Aphis gossypii); assay: Aphis gossypii test, spray treatment to runoff on infested cotton plants
From the text: as §1, §2, §3, §4
Cotton plants (Gossypium herbaceum) heavily infested by the cotton aphid (Aphis gossypii) are sprayed to runoff with the desired concentration of the application solution.
as §5

[3] = system: caterpillars of the army worm (Spodoptera frugiperda); assay: Spodoptera frugiperda test, spray treatment to runoff on corn plants
From the text: as §1, §2, §3, §4
b) Spodoptera frugiperda Test
Corn plants (Zea mais) are sprayed to runoff with the desired use concentration and are populated with caterpillars of the army worm (Spodoptera frugiperda) while the leaves are still wet.
as §5

[4] = system: larvae of the cabbage moth (Plutella xylostella); assay: Plutella xylostella test, spray treatment to runoff on cabbage plants; settings: Table B
From the text: as §1, §2, §3, §4
c) Plutella xylostella Test
Cabbage plants (Brassica pekinesis) are sprayed to runoff with the desired use concentration and are populated with larvae of the cabbage moth (Plutella xylostella) while the leaves are still wet.
as §5

[5] = system: caterpillars of the cotton boll worm (Heliothis armigera); assay: Heliothis armigera test, spray treatment to runoff on cotton plants; settings: Table A, 4 ppm
From the text: as §1, §2, §3, §4
a) Heliothis armigera Test […]
After the desired time the kill in % is determined in each case. […] The kill figures determined are calculated in accordance with the Colby formula described above.

Compound: CC1(C)[C@H](C(=O)O[C@H](C#N)c2cccc(Oc3ccccc3)c2)[C@@H]1C=C(Br)Br [Deltamethrin]
- Kill in % after 1^d ([1]; 0.8 ppm): 20%
- Kill in % after 3^d ([2]; Table D2, 0.8 ppm): 15%

Compound: C=CCN(CC=C)C(=O)C(Cl)Cl [Dichlormid a.i., 2,2-dichloro-N,N-di-2-propenylacetamide]
- Kill in % after 3^d ([3]; Table C2, 50 ppm): 0%
- Kill in % after 3^d ([2]; Table D1, 100 ppm): 0%

Compound: Clc1cc(Cl)nc(-c2ccccc2)n1 [Fenclorim, 4,6-dichloro-2-phenylpyrimidine]
- Kill in % after 7^d ([4]; 100 ppm): 0%
- Kill in % after 3^d ([3]; Table C2, 100 ppm): 0%
- Kill in % after 3^d ([2]; Table D1, 100 ppm): 0%
- Kill in % after 3^d ([2]; Table D2, 100 ppm): 0%

Compound: CC1(C)OC(c2ccco2)CN1C(=O)C(Cl)Cl (stereo not shown) [Furilazole a.i., 3-dichloroacetyl-5-(2-furanyl)-2,2-dimethyloxazolidine]
- Kill in % after 1^d ([1]; 100 ppm): 0%
- Kill in % after 3^d ([3]; Table C2, 100 ppm): 0%
- Kill in % after 3^d ([2]; Table D1, 100 ppm): 0%
- Kill in % after 3^d ([2]; Table D2, 100 ppm): 0%

Compound: CNC(=O)Oc1cc(C)c(SC)c(C)c1 [Methiocarb]
- Kill in % after 7^d ([4]; 20 ppm): 0%
- Kill in % after 3^d ([3]; Table C2, 20 ppm): 17%

Compound: CC1(C)C(C=C(Cl)Cl)C1C(=O)OC(C#N)c1ccc(F)c(Oc2ccccc2)c1 (stereo not drawn) [β-Cyfluthrin, Beta-Cyfluthrin]
- Kill in % after 3^d ([1]; Table E1, 0.8 ppm, after 3 d): 10%
- Kill in % after 3^d ([2]; Table D1, 0.8 ppm): 35%

Compound: Chlorpyrifos
- Kill in % after 7^d ([4]; 4 ppm): 0%
- Kill in % after 3^d [5]: 0%
- Kill in % after 3^d ([3]; Table C1, 4 ppm): 50%
